Like-named read-outs stand apart in the source and are kept apart here.
Tests used:
[1] = system: LNCaP104-R1 prostate cancer cells; assay: Two dimensional cell growth inhibitory assay (MTT): LNCaP104-R1; details: Homo sapiens, 72 h, read-out: MTT IC50 ± SD
Protocol: (§3) For the two dimensional assay, cancel cells in the logarithmic phase were cultured in complete medium in 96-well plates at 37° C. with 5% CO2 for overnight incubation, and treated with various concentrations of test compounds for three generative times. Cells were then incubated with a serum free medium containing 3-(4,5-dimethylthiazol-2-yl)-2,5-diphenyltetrazolium bromide (MTT) at a final concentration of 0.5 mg/mM for four hours. MTT was converted to formazan by metabolically viable cells. Formazan was then solublized in 50% DMF solution containing 20% SDS at 37° C. overnight. Absorbance was measured at 570 nm using a spectramax M5 microplate reader (Molecular Devices, UK).

[2] = system: PC3 prostate cancer cells; assay: Three dimensional cell growth inhibitory assay (cellular spheres, MTT, microscopy): PC3; assay type: cell-based, human; details: for IC50: Homo sapiens
Protocol: (§1) For the three dimensional assay, cells in the logarithmic phase were cultured in 50% Matrigel-containing complete medium in 96-well plates at 37° C. with 5% CO2 for five days incubation, and treated with appropriate concentrations of test compounds for three generative times. Images of spheroids were taken under a microscope, and spheroid cell survival was determined by MTT assays.
(§2) The cells (in the 2D culture) and the cellular spheres (in the 3D culture) were treated with test compounds for 72 hours, and then subjected to the MTT colorimetric assay. Each value represents the mean of three independent experiments. Cellular spheres formed in semi-solid and drug effect on cellular spheres were examined using phase-contrast light microscopy.
More specifically, cellular spheres formed in semi-solid and drug effect on cellular spheres were examined using phase-contrast light microscopy. 3D structures of cells were analyzed using 4× magnification, 10× magnification, and 20× magnification.

[3] = system: LNCaP104-R2 prostate cancer cells; assay: Two dimensional cell growth inhibitory assay (MTT): LNCaP104-R2; details: Homo sapiens, 72 h, read-out: MTT IC50 ± SD
Protocol: as §3

[4] = system: HT-29 (colorectal carcinoma); assay: IC50 in human cancer cell lines (inhibiting HDAC): HT-29
PC3 (prostate carcinoma) = assay: IC50 in human cancer cell lines (inhibiting HDAC): PC3
[5] = system: HONE-1 (nasopharyngeal carcinoma); assay: IC50 in human cancer cell lines (inhibiting HDAC): HONE-1
[6] = system: PC3 prostate cancer cells; assay: Two dimensional cell growth inhibitory assay (MTT): PC3; details: Homo sapiens
Protocol: as §3

[7] = system: LNCaP104-S prostate cancer cells; assay: Three dimensional cell growth inhibitory assay (cellular spheres, MTT): LNCaP104-S; assay type: cell-based; details: Homo sapiens; 3D cellular sphere culture, LNCaP104-S (androgen-dependent), 72 hours; read-out: MTT IC50 ± SD
Protocol: as §1, §2

[8] = system: histone and α-tubulin acetylation in PC3 cells; assay: Western blot: acetylation in PC3 cells; assay type: cell-based, human; details: concentration-dependent
Protocol: More specifically, cells in the logarithmic phase were initially seeded at a density of 1×10^6 in 100 mm^2 dishes. […] Briefly, cells were lysed with the cell lysis reagent CelLytic™ M (Sigma-Aldrich) containing 1 mM DTT, 1 mM PMSF and protease inhibitors for whole-cell lysate preparation. Equal amounts of lysate (on a protein basis) were then differentiated using the SDS-PAGE, blotted on PVDF membranes, conjugated with various specific primary antibodies, and then probed with appropriate secondary antibodies. The immunoreactive bands were detected using the ECL method and visualized on Kodak Bio-MAX MR film.
Proteins from cells were extracted and subjected to the western blotting analysis. β-Actin was used as an internal control. The deacetylase enzyme assay was based on a homogeneous fluorescence release assay. […] After fluorophore from the deacetylated substrates, fluorescent signal was detected.

[9] = system: LNCaP104-R1 prostate cancer cells; assay: Three dimensional cell growth inhibitory assay (cellular spheres, MTT): LNCaP104-R1; assay type: cell-based; details: Homo sapiens; 3D cellular sphere culture, LNCaP104-R1 (androgen-independent), 72 hours; read-out: MTT IC50 ± SD
Protocol: as §1, §2

[10] = system: KB cell line (oral carcinoma); assay: IC50 in human cancer cell lines (inhibiting HDAC): KB
[11] = system: androgen-independent PC3 prostate cancer cells; assay: Cell cycle analysis; assay type: cell-based, human; details: for cell cycle arrest and apoptosis: androgen-independent PC3 prostate cancer cells
Protocol: More specifically, cells in the logarithmic phase were initially seeded at a density of 1×10^6 in 100 mm^2 dishes. After treatment with various concentrations of test compounds for the indicated times, cells were trypsinized, washed with PBS, and fixed in 70% ethanol. The fixed cells were then treated with 50 μg/mL RNase and stained with 50 μg/mL propidium iodide at room temperature for 20 minutes. The DNA content was determined by BD FACS Calibur flow cytometry system (BD Biosciences). For each analysis, 10,000 cells were counted, and the percentage of cells in each phase was calculated using ModFit LT software (Verity Software House, Inc.).

[12] = system: LNCaP104-S prostate cancer cells; assay: Two dimensional cell growth inhibitory assay (MTT): LNCaP104-S; details: Homo sapiens, 72 h, read-out: MTT IC50 ± SD
Protocol: as §3

[13] = system: H460 (non-small-cell lung carcinoma); assay: IC50 in human cancer cell lines (inhibiting HDAC): H460
[14] = system: Du145 prostate cancer cells; assay: Two dimensional cell growth inhibitory assay (MTT): Du145; details: Homo sapiens, DU-145, 72 h, read-out: MTT IC50 ± SD
Protocol: as §3

[15] = system: human PC3 prostate cancer cells xenograft; assay: In vivo antitumor activity assay, PC3 xenograft
From the text: The antitumor effect of the two test compounds were examined in mice xenografted with human PC3 prostate cancer cells or HCT116 colorectal cells.
Five million PC3 cells were subcutaneously inoculated into specific pathogen-free male athymic mice (strain BALB/cAnN.Cg-Foxn1nu/CrlNarl) from the National Laboratory Animal Center, Taiwan. Mice were subsequently fed under specific pathogen-free conditions and provided with sterile water and food. When the tumor volume reached 150 to 200 mm^3, mice were assigned to groups randomly and treated with vehicle control or Compound 7 or 5b at 25/50/100 mg/kg. The compound was administered once a day, 5 days/week for 2 weeks (n=6) by oral administration. Tumor volume and body weight change were measured twice a week. At the end of the experiments (day 25 after first dosing), animals were euthanized in a CO2-containing chamber, and the tumors were collected and fixed in formaldehyde. The terminal deoxynucleotidyl transferase-mediated dUTP nick end labeling assay (TUNEL) was conducted for apoptosis detection. Tumor tissue sections were analyzed using a FITC In Situ Cell death detection kit (Roche) and fluorescence microscopy. Tissue treated with DNase was used as the positive control. Green fluorescence labeled nucleus indicates the induction of DNA fragmentation.

COc1ccc(S(=O)(=O)N2CCc3cc(/C=C/C(=O)NO)cnc32)cc1 [Compound 5b, (E)-N-hydroxy-3-(1-(4-methoxyphenylsulfonyl)-2,3-dihydro-1H-pyrrolo[2,3-b]pyridin-5-yl)acrylamide] showed an IC50 [1] of 100 ± 40 nM, an IC50 ([2]; 3D cellular sphere culture, PC3, 72 hours, read-out: MTT IC50 ± SD) of 410 ± 60 nM and an IC50 ([2]; Table 6, cell line not given, read-out: IC50 value 3D Culture) of 410 ± 60 nM. For the same compound, the IC50 [3] was 180 ± 70 nM, the IC50 ([4]; HT-29, read-out: IC50 ± SD against human cancer cell lines) was 85.4 ± 9.8 nM and the IC50 (PC3 (prostate carcinoma); read-out: IC50 ± SD against human cancer cell lines) was 170 ± 40 nM. The IC50 ([5]; HONE1, read-out: IC50 ± SD against human cancer cell lines) was 447 ± 45.2 nM, the IC50 ([6]; 72 h, read-out: MTT IC50 ± SD) was 170 ± 40 nM and the IC50 ([6]; read-out: IC50 value 2D Culture) was 170 ± 40 nM. The IC50 [7] was 230 ± 30 nM, the “histone and α-tubulin acetylation” value [8] was “induced histone and α-tubulin acetylation” and the IC50 [9] was 150 to 625 nM. For the same compound, the IC50 ([10]; Homo sapiens, read-out: IC50 ± SD against human cancer cell lines, KB, oral carcinoma) was 86.6 ± 17.1 nM, the p21 up-regulation [11] was “induced p21 up-regulation” and the “cell cycle arrest and apoptosis” value [11] was “induced cell cycle arrest and apoptosis”. The IC50 [12] was 150 ± 30 nM, the IC50 ([13]; NCI-H460, read-out: IC50 ± SD against human cancer cell lines) was 112 ± 9.5 nM and the IC50 [14] was 90 ± 30 nM. For the same compound, the “inhibition of human PC3 xenograft growth” value ([15]; 50 mg/kg oral, day 29 after the first dosing) was “about 70%”, the “inhibition of human PC3 xenograft growth” value ([15]; 100 mg/kg oral) was “completely inhibited” and the tumor regression ([15]; PC3 xenograft, 100 mg/kg oral) was “achieved tumor regression from day 8 to day 29”.

For O=C(/C=C/c1cccc(S(=O)(=O)n2ccc3cccnc32)c1)NO [Compound 7, (E)-3-(3-(1H-Pyrrolo[2,3-b]pyridin-1-ylsulfonyl)phenyl)-N-hydroxyacrylamide], the IC50 [1] was 1150 ± 30 nM, the “effect on spheroid structure of PC3 tumors” value ([2]; 3D culture, phase-contrast light microscopy) was “disrupted the spheroid structure of PC3 tumors in a concentration-dependent manner” and the IC50 ([2]; read-out: 3D Culture) was 6380 ± 160 nM. For the same compound, the “cytotoxic / anti-proliferative activity in 3D versus 2D culture” value ([2]; human prostate carcinoma cells, 2D and 3D culture) was “potent in both a 3D spheroid culture and a 2D culture”, the IC50 [3] was 2090 ± 110 nM and the IC50 ([4]; HT-29, read-out: IC50, inhibiting HDAC in human cancer cell lines) was 1240 ± 400 nM. The IC50 (PC3 (prostate carcinoma); read-out: IC50, inhibiting HDAC in human cancer cell lines) was 1630 ± 410 nM, the IC50 ([5]; HONE1, read-out: IC50, inhibiting HDAC in human cancer cell lines) was 1200 ± 310 nM and the IC50 ([6]; read-out: 2D Culture) was 2990 ± 170 nM. The IC50 [7] was 3210 ± 150 nM, the “histone and α-tubulin acetylation” value [8] was “induced histone and α-tubulin acetylation” and the IC50 [9] was 2450 ± 150 nM. The IC50 ([10]; read-out: IC50, inhibiting HDAC in human cancer cell lines, oral carcinoma) was 760 ± 230 nM, the “cell cycle arrest and apoptosis” value [11] was “induced cell cycle arrest and apoptosis” and the IC50 [12] was 1980 ± 100 nM. For the same compound, the IC50 ([13]; NCI-H460, read-out: IC50, inhibiting HDAC in human cancer cell lines) was 570 ± 10 nM, the IC50 [14] was 1220 ± 50 nM and the “inhibition of human PC3 xenograft growth” value ([15]; 25 mg/kg oral, day 25 after the first dosing) was “about 50%”. The “inhibition of human PC3 xenograft growth” value ([15]; 50 mg/kg oral, day 25 after the first dosing) was “about 50%” and the body weight change ([15]; PC3 xenograft mice, 25 and 50 mg/kg oral) was “without causing much body weight change”.

From patent US10246455B2, “Histone deacetylase inhibitors” (Taipei Medical University, priority 2014, dated 2019)
